According to BindingDB's records for doi:10.1111/cbdd.12189 (Tianjin Medical University, 2013):

Tests used:
[1] = molecular target: T1, Tyrosine-protein phosphatase non-receptor type 2 (Homo sapiens, UniProt P17706); assay: PTP activity assay; conditions: pH 6; 37 °C
T1 sequence (P17706 whole entry): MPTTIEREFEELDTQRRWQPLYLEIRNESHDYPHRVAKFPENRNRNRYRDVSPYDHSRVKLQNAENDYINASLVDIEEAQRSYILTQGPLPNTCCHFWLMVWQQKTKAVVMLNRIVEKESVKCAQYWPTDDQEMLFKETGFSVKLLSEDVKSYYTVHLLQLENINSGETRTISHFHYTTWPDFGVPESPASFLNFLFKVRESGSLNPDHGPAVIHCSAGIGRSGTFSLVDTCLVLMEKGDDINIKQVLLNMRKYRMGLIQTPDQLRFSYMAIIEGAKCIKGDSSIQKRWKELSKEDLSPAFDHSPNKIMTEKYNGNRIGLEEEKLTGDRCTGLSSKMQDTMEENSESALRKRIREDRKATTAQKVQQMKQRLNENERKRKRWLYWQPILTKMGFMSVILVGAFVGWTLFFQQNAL
Description: (§1) The enzyme activity was measured using p-nitrophenyl phosphate (pNPP) as substrate in a 96-well plate and by detecting the absorbance at 405 nm for the amount of produced p-nitrophenol. Purified human recombinant PTP1B or TCPTP (0.05 µg) in 50 µL buffer containing 50 mM citrate (pH 6.0), 0.1 M NaCl, 1 mM EDTA, and 1 mM DTT and test compounds were added to each well. Each mixture was pre-incubated for 15 min at room temperature, followed by the addition of 50 µL of reaction buffer containing 2 mM pNPP and incubated at 37°C for 30 min.

[2] = molecular target: T2, Tyrosine-protein phosphatase non-receptor type 1 (Homo sapiens, UniProt P18031); assay: PTP activity assay; conditions: pH 6; 37 °C
T2 sequence (P18031 whole entry): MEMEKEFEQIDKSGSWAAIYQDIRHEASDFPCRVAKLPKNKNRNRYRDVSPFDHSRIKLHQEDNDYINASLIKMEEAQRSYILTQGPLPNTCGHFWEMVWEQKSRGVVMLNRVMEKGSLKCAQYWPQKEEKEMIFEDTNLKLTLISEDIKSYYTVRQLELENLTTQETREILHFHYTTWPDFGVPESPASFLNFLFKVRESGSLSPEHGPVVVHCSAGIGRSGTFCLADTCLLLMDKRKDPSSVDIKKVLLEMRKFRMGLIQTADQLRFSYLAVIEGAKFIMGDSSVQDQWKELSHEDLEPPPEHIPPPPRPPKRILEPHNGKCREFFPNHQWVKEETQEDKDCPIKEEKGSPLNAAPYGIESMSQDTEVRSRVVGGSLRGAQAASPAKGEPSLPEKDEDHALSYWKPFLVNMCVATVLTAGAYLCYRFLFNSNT
Description: as §1

O=C1NC(=O)/C(=C/c2ccccc2OCc2ccc(Cl)cc2Cl)N1 [(5Z)‐5‐({2‐[(2,4‐ dichlorophenyl)methoxy]phenyl}methylidene)imidazolidine‐ 2,4‐dione (comp#c)]
IC50 [1]: 18.7 µM
IC50 [2]: 4.1 µM

O=C1NC(=O)/C(=C/c2ccccc2OCc2cccc(Cl)c2)N1 [(5Z)‐5‐({2‐[(3‐ chlorophenyl)methoxy]phenyl}methylidene)imidazolidine‐ 2,4‐dione (comp#a)]
IC50 [1]: 36.8 µM
IC50 [2]: 37.4 µM

O=C1NC(=O)/C(=C/c2ccccc2OCc2ccc(Cl)cc2)N1 [(5Z)‐5‐({2‐[(4‐ chlorophenyl)methoxy]phenyl}methylidene)imidazolidine‐ 2,4‐dione (comp#b)]
IC50 [1]: 35.9 µM
IC50 [2]: 4.6 µM

O=C1NC(=O)/C(=C/c2cccc(OCc3ccc(Cl)cc3Cl)c2)N1 [(5Z)‐5‐({3‐[(2,4‐ dichlorophenyl)methoxy]phenyl}methylidene)imidazolidine‐ 2,4‐dione (comp#h)]
IC50 [1]: > 138 µM
IC50 [2]: 4.1 µM

O=C1NC(=O)/C(=C/c2cccc(OCc3ccc(Cl)c(Cl)c3)c2)N1 [(5Z)‐5‐({3‐[(3,4‐ dichlorophenyl)methoxy]phenyl}methylidene)imidazolidine‐ 2,4‐dione (comp#i)]
IC50 [1]: 33.6 µM
IC50 [2]: 2.8 µM

O=C1NC(=O)/C(=C/c2cccc(OCc3ccc(Cl)cc3)c2)N1 [(5Z)‐5‐({3‐[(4‐ chlorophenyl)methoxy]phenyl}methylidene)imidazolidine‐ 2,4‐dione (comp#g)]
IC50 [1]: 137 µM
IC50 [2]: 40.8 µM

O=C1NC(=O)/C(=C/c2ccc(OCc3ccc(Cl)cc3Cl)cc2)N1 [(5Z)‐5‐({4‐[(2,4‐ dichlorophenyl)methoxy]phenyl}methylidene)imidazolidine‐ 2,4‐dione (comp#j)]
IC50 [1]: 11.6 µM

O=C1NC(=O)/C(=C/c2ccc(OCc3ccc(Cl)c(Cl)c3)cc2)N1 [(5Z)‐5‐({4‐[(3,4‐ dichlorophenyl)methoxy]phenyl}methylidene)imidazolidine‐ 2,4‐dione (comp#k)]
IC50 [1]: 33.9 µM

COc1ccc(COc2ccc(/C=C3\NC(=O)NC3=O)cc2)cc1 [(5Z)‐5‐({4‐[(4‐ methoxyphenyl)methoxy]phenyl}methylidene)imidazolidine‐ 2,4‐dione (comp#l)]
IC50 [1]: 31.4 µM
IC50 [2]: 3.4 µM

O=C1NC(=O)/C(=C/c2cccc(OCc3ccccc3)c2)N1 [(5Z)‐5‐{[3‐ (benzyloxy)phenyl]methylidene}imidazolidine‐2,4‐ dione (comp#d)]
IC50 [1]: > 170 µM
IC50 [2]: > 170 µM

O=C1NC(=O)/C(=C/c2cccc(OCCc3ccccc3)c2)N1 [(5Z)‐5‐{[3‐(2‐ phenylethoxy)phenyl]methylidene}imidazolidine‐2,4‐ dione (comp#e)]
IC50 [1]: 44.1 µM
IC50 [2]: 11.4 µM

O=C1NC(=O)/C(=C/c2cccc(OCCCc3ccccc3)c2)N1 [(5Z)‐5‐{[3‐(3‐ phenylpropoxy)phenyl]methylidene}imidazolidine‐2,4‐ dione (comp#f)]
IC50 [1]: 22.3 µM
IC50 [2]: 41.9 µM
